Data on one compound can be found in US7423020B2, “Treatment of mood disorders by administration of SMR1” (Institut Pasteur, priority 2001, dated 2008).

The term inhibition denotes the relative decrease from the control value, in per cent.

The target of one assay is T1, NEP (Rattus norvegicus, UniProt P07861).
T1 construct: incubations of membrane and fresh tissue slice preparations from nervous tissues; from tissue; host or cells: rat spinal cord (dorsal zone), fresh slices or 100 000 x g membrane fraction
T1 sequence (P07861 1-750): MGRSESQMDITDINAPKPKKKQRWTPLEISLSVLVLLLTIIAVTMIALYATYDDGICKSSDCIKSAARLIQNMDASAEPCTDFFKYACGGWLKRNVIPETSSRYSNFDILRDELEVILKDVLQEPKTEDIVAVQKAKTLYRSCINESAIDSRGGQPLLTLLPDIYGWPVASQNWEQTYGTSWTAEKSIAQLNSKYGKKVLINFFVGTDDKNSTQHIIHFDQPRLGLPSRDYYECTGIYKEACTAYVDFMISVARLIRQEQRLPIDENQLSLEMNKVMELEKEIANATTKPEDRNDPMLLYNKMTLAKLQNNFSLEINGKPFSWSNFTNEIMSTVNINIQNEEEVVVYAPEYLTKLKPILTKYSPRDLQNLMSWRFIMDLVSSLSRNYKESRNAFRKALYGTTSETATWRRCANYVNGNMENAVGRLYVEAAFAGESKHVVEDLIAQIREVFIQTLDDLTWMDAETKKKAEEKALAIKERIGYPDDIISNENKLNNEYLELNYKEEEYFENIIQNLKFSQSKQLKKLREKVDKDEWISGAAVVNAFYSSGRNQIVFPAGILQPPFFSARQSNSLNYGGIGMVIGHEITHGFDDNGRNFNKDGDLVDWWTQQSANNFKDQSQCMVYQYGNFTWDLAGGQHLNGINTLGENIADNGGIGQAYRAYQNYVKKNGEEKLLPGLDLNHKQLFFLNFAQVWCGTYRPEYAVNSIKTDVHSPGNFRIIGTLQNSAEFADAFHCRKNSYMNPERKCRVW
Briefly: Met-enkephalin hydrolysis by rat spinal cord slices and membrane preparations, RP-HPLC analysis. Format: biochemical. As to conditions: 10 μM; spinal cord slices; 20 min at 25° C.; Met-enkephalin 10 μM; read-out: inhibition of Met-enkephalin degradation (RP-HPLC). The procedure:
The organs are rapidly removed, dissected on ice, freed of nerve fibers and of adipose tissues and then washed in cold oxygenated glucose-and bicarbonate-containing Krebs Ringer (KRBG) solution, whose composition is the following: 120 mM NaCl-5 mM KCl-1.2 mM KH2PO4-27.5 mM NaHCO3-2.6 mM CaCl2-0.67 mM MgSO4-5.9 mM glucose. The slices of tissues are prepared either manually with the aid of a scalpel (1-2 mm thick), or mechanically with the aid of a “Tissue Chopper” (1 mm thick). Slices are then dispersed into reaction tubes where they are subjected to three successive washes in ice-cold oxygenated KRBG. […] The organs dissected out and washed in ice-cold KRBG are homogenized at 4° C. in 10 volumes (vol./wt.) of 50 mM Tris/HCl buffered at pH 7.2, using a Teflon-glass homogenizer (3×5 sec.). A first centrifugation of 5 min. at 1000×g and 4° C. makes it possible to remove the tissular debris and the nuclei in the pellet. A second centrifugation of the supernatant at 100 000×g and 5° C. concentrates the membrane fraction into the pellet, which will be superficially washed three times with cold Tris/HCl buffer and resuspended in fresh buffer using a Kontes homogenizer, aliquoted and stored at -80° C. while waiting to be used as enzyme source, at least until three months. For the experiments of analysis of the NEP peptidase activity, an ex vivo model using incubations of membrane and fresh tissue slice preparations from nervous tissues that are known to be appropriate for exploring NEP peptidase activity: i.e. the dorsal zone of rat spinal cord, was first developed. The metabolism rate of the NEP-sensitive peptides was measured using the both NEP substrates involved in the signaling of the nociceptive response: the neuropeptides Met-enkephalin and Substance P. […] (NEN, 12.5-25 nM) were used. The objective was to measure the NEP-specific endoproteolysis of these substrates. […] Furthermore, for studying the functional role of […] NO: 1), the reaction was carried out in the presence of the SMR1-peptide alone or combined with specific inhibitors of membrane peptidases which could inactivate the […] NO: 1) peptide by cleaving its C-terminal end: an inhibitor of carboxypeptidase […], 10 μM, Sigma) and an inhibitor of dipeptidylpeptidase IV (DPPIV inhibitor, 10 μM, Roche). […] Samples are kept at -30° C. until the measurement of their intact substrate and its metabolites content. The membrane preparations are preincubated in 50 mM Tris/HCl buffered at pH 7.2 and containing 10 μM Bestatin, at 25, 30 or 37° C. in constantly shaken water, in the presence or in the absence of NEP inhibitor. […] Samples are kept at -30° C. until the measurement of their intact substrate and its metabolites content. HPLC is a highly resolutive procedure that allows one to isolate, and detect by coupled spectrophotometer analysis, the non-radioactive peptides whose concentration is at least 1 to 10 μM. The C-18 RP-HPLC is based on the same principle as the C-18 Sep-Pak cartridge. The chromatographic analyses were used to study the hydrolysis of Met-Enkephalin, that were done on a C-18 LUNA analytical column (150×4.6 mm inner diameter, AIT) packed with 5 μm-diameter beads. […] Their identification and relative quantification (peak height) are checked by continuously monitoring the UV absorbance at 254 nm of column outflow. In first series of experiment, the slices and the membrane preparations of spinal cord tissues were incubated at 30° C. in a 1 ml final volume of KRBG, and at 37° C. in a 0.25 ml final volume of Tris/HCl 50 mM, pH 7.2, respectively.

For the next assay, the system named is adult male rats. Particulars: PCT patent application WO 01/00 221; cited from earlier work.

Where a SMILES comes first, the peptide text is derived from it.

In the case of `N=C(N)NCCC[C@H](NC(=O)[C@@H]1CCCN1C(=O)[C@H](CC(N)=O)NC(=O)[C@H](Cc1c[nH]cn1)NC(=O)[C@@H](N)CCC(N)=O)C(=O)O` [SMR1-QHNPR, QHNPR] (H-QHNPR-OH; N-terminus and C-terminus assumed), at NEP, the inhibition at 10 µM worked out at 70%. Besides, in the assay with adult male rats, the “effect on sexual behavior and aggressive impulse behavior” value is given as “dose-dependent improvement on the sexual behavior of adult male rats with a loss of the aggressive impulse behavior”.
